Experimental data published in US9296757B2, “Substituted benzothienopyrimidines” (BAYER PHARMA AKTIENGESELLSCHAFT, priority 2012, dated 2016).

Biological target: human full-length MKNK1 (Homo sapiens (Human), UniProt Q9BUB5, T344D)
Test: MKNK1 kinase high ATP assay (TR-FRET)
Format: biochemical
Settings: high ATP (2 mM final), 15 min preincubation with enzyme
How it was run: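 GST-tagged full-length MKNK1 (T344D), insect-cell expressed, preincubated 15 min at 22 °C with compound, then reacted 30 min at 22 °C with 2 mM ATP and 0.06 μM biotinylated peptide in HEPES pH 7.5 buffer (final concentrations). Phospho-peptide detected by TR-FRET (665/620 nm ratio), normalised to no-inhibitor and no-enzyme controls.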

Sequence of human full-length MKNK1 (Q9BUB5 other isoform, or with tags, fused parts or gaps T344D): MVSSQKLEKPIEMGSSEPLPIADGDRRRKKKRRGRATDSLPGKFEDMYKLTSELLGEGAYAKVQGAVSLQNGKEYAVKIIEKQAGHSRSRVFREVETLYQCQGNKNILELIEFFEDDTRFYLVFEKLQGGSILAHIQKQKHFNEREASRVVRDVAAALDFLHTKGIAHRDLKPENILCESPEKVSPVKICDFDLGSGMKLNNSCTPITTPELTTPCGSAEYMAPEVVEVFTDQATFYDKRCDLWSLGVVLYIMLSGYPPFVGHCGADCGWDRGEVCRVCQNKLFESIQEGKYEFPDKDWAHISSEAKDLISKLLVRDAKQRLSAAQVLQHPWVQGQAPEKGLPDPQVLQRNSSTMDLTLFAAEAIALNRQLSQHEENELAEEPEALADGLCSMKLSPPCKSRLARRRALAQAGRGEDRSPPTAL

Row | SMILES | IC50 [nM]
1 | O=C(C1CCc2c(sc3ncnc(Nc4ccc5[nH]c(=O)sc5c4)c23)C1)N1CCC(O)C1 (racemic) [Example 51, 6-{[(7RS)-7-{[(3RS)-3-hydroxypyrrolidin-1-yl]carbonyl}-5,6,7,8-tetrahydro[1]benzothieno[2,3-d]pyrimidin-4-yl]amino}-1,3-benzothiazol-2(3H)-one] | 75
2 | O=C(C1CCc2c(sc3ncnc(Nc4ccc5[nH]c(=O)sc5c4)c23)C1)N1CCCC1CO (racemic) [Example 46, 6-{[(7RS)-7-{[(2RS)-2-(hydroxymethyl)pyrrolidin-1-yl]carbonyl}-5,6,7,8-tetrahydro[1]benzothieno[2,3-d]pyrimidin-4-yl]amino}-1,3-benzothiazol-2(3H)-one] | 35
3 | N#CC1CCN(C(=O)C2CCc3c(sc4ncnc(Nc5ccc6[nH]c(=O)sc6c5)c34)C2)CC1 (racemic) [Example 76, (RS)-1-({4-[(2-oxo-2,3-dihydro-1,3-benzothiazol-6-yl)amino]-5,6,7,8-tetrahydro[1]benzothieno[2,3-d]pyrimidin-7-yl}carbonyl)piperidine-4-carbonitrile] | 54
4 | CCN1CCN(C(=O)C2CCc3c(sc4ncnc(Nc5ccc6[nH]c(=O)sc6c5)c34)C2)CC1 (racemic) [Example 60, (RS)-6-({7-[(4-ethylpiperazin-1-yl)carbonyl]-5,6,7,8-tetrahydro[1]benzothieno[2,3-d]pyrimidin-4-yl}amino)-1,3-benzothiazol-2(3H)-one] | 36
5 | CC(C)S(=O)(=O)NCC1CCc2c(sc3ncnc(Nc4ccc5[nH]c(=O)sc5c4)c23)C1 (racemic) [Example 28, (RS)—N-({4-[(2-Oxo-2,3-dihydro-1,3-benzothiazol-6-yl)amino]-5,6,7,8-tetrahydro[1]benzothieno[2,3-d]pyrimidin-7-yl}methyl)propane-2-sulfonamide] | 139
6 | CC(=O)N(C)C1CCN(C(=O)C2CCc3c(sc4ncnc(Nc5ccc6[nH]c(=O)sc6c5)c34)C2)C1 (racemic) [Example 61, N-methyl-N-[(3RS)-1-({(7RS)-4-[(2-oxo-2,3-dihydro-1,3-benzothiazol-6-yl)amino]-5,6,7,8-tetrahydro[1]benzothieno[2,3-d]pyrimidin-7-yl}carbonyl)pyrrolidin-3-yl]acetamide] | 32

Other lines, results leading:

Row | IC50 [nM] | SMILES
7 | 38.7 | N#CC1CN(C(=O)C2CCc3c(sc4ncnc(Nc5ccc6[nH]c(=O)sc6c5)c34)C2)C1 (racemic) [Example 91, (RS)-1-({4-[(2-Oxo-2,3-dihydro-1,3-benzothiazol-6-yl)amino]-5,6,7,8-tetrahydro[1]benzothieno[2,3-d]pyrimidin-7-yl}carbonyl)azetidine-3-carbonitrile]
8 | 52 | O=C(C1CCc2c(sc3ncnc(Nc4ccc5[nH]c(=O)sc5c4)c23)C1)N1CC2(COC2)C1 (racemic) [Example 83, (RS)-6-{[7-(2-oxa-6-azaspiro[3.3]hept-6-ylcarbonyl)-5,6,7,8-tetrahydro[1]benzothieno[2,3-d]pyrimidin-4-yl]amino}-1,3-benzothiazol-2(3H)-one]
9 | 46 | CN(CCN1CCOCC1)C(=O)C1CCc2c(sc3ncnc(Nc4ccc5[nH]c(=O)sc5c4)c23)C1 (racemic) [Example 82, (RS)-N-methyl-N-[2-(morpholin-4-yl)ethyl]-4-[(2-oxo-2,3-dihydro-1,3-benzothiazol-6-yl)amino]-5,6,7,8-tetrahydro[1]benzothieno[2,3-d]pyrimidine-7-carboxamide]
